Where two headings read alike, the source gives them in different places.
Legend:
[1] = system: 20 phosphatases; experiment: PhosphataseProfiler assay platform (Millipore); type: biochemical; conditions: competition with substrate protein
Text: Kinase assay system #3. KinaseProfiler™ and PhosphataseProfiler™ assay platforms (Millipore). This platform is radiometric-based (considered gold standard). It measures competition with respect to ATP for kinases and substrate protein for phosphatases. Most proteins were expressed via an insect-based system, and it evaluates a panel of 284 kinases and 20 phosphatases. […] Important negative findings include: MKK4, MKK6, p38 MAPK, MAPKAPK2, RAF1, ERK, MEK1, JNK1, 2 and 3, and numerous other MAPK cascade-associated kinases.

[2] = system: phosphorylation of p38 MAPK or of HSP27; experiment: Downstream phosphorylation of p38 MAPK and HSP27 in cells (Western blot); type: cell-based, human; conditions: PC3-M cells, 50 μM, 24 hours, then TGFβ
Description: FIG. 16a is a depiction of established MKK4 pathway regulating human PCa cell metastasis. […] Values are the mean±SD (of N=2 replicates) increase in melting temperature (ΔTm) of purified recombinant MKK4 induced by the indicated concentrations of KBU2046 or genistein. […] The indicated concentrations of KBU2046 were added to recombinant activated MKK4, and its ability to phosphorylate kinase dead p38a MAPK (K53A) was measured by Western blot for total (p38 MAPK) and phosphorylated (pp38 MAPK) forms of p38 MAPK. […] PC3-M cells were pre-treated for 24 hours with 50 μM KBU2046 or genistein, as indicated, then with TGFβ, and Western blot performed. These findings are from a single experiment, with similar findings in identical separate experiments, repeated at least once.

[3] = Plasma KBU2046 concentration after dosing in chow; type: in vivo, athymic mice; conditions: Balb/c athymic, mouse, oral
Description: Cohorts of N=12 athymic mice bearing human PCa PC3-M cell orthotopic implants (a), or of N=5 non-tumor bearing athymic mice (b), were treated with KBU2046 incorporated into chow, and resultant lung metastasis (a) or plasma KBU2046 concentration (b) measured. Values are the mean±SEM. The relationship between dose and metastasis was evaluated by two-sided ANOVA (a). FIG. 2c a comprehensive characterization of KBU2046 pharmacokinetics. CD1 mice were dosed with 100 mg KBU2046/kg via oral gavage or intravenous injection (iv), and blood collected at the indicated time points (data from mice dosed at 25 mg/kg are in FIG. 12, and corroborate 100 mg/kg findings). For each route and time point, N=3 mice were sampled. Individual data points are the resultant plasma concentrations from individual mice, and are the mean of N=2 measurements. The dotted horizontal line denotes a concentration of 24 nM, which was the concentration of KBU2046 measured in the blood of mice whose metastasis were suppressed by 92% (a-b). […]
KBU2046 Quantification and Pharmacokinetics. […]
Plasma KBU2046 concentrations were measured in duplicate by liquid chromatography-tandem mass spectrometry after sample preparation by solid-phase extraction. […] The mass-to-charge ratios of the precursor-to-product ion reactions monitored were 243.5→125.1 for KBU2046 and 257.0→165.0 for the internal standard. […]

[4] = system: human cord blood CD34+ stem cells; experiment: Hematopoietic stem cell colony formation assay; type: cell-based; conditions: colonies at 14 days
Text: FIG. 1a is a schematic flow of probe synthesis and development strategy. […] Values are mean±SEM of a single experiment in replicates of N=4, with similar findings in multiple separate experiments (also N=4). […] Values are mean±SEM of a single experiment in replicates of N=24, with similar findings in a separate experiment (also N=24). *Denotes Student's t test P value <0.05, compared to controls. […] Values are mean±SEM from N>2 separate experiments, each in replicates of N=3. […] Values are the mean±SD number of total, CFU-GM, CFU-GEMM or BFU-E colonies at 14 days after treatment with KBU2046, from a single experiment in replicates of N=2. […] Values are the mean±SD of a single experiment, with similar results seen in a separate experiment, both in replicates of N=2.
Hematopoietic Stem Cell Colony Formation Assay. Fourteen-day colony formation assays were conducted as described (Bergan, R. et al., Blood 88, 731-41 (1996)), using human cord blood CD34+ stem cells (AllCells Inc.), using MethoCultExpress™ colony growth media (StemCell Technologies Inc.), performed in replicates of N=2.

SMILES: O=C1c2ccccc2OCC1c1ccc(F)cc1 (racemic) [KBU2046, (±)-3(4-fluorophenyl)chroman-4-one]
- inhibition of phosphatase activity [1]: No evidence supports inhibition of phosphatase activity
- inhibition of downstream phosphorylation of p38 MAPK or HSP27 [2]: did not inhibit downstream phosphorylation of p38 MAPK or of HSP27
- concentration at 35 days ([3]; doses that decreased metastasis, read-out: plasma concentrations): 1.1 to 24 nM
- concentration at 35 days ([3]; read-out: concentration in blood of mice whose metastasis were suppressed by 92%): 24 nM
- toxicity to human bone marrow stem cells [4]: not toxic

From patent publication US20210293825A1, “METHODS FOR PRECISION THERAPEUTIC TARGETING OF HUMAN CANCER CELL MOTILITY AND KITS THEREOF” (UNITED STATES GOVERNMENT AS REPRESENTED BY THE DEPARTMENT …, priority 2018, published 2021)
